Assay results published in publication PMC9818021, “Targets, Mechanisms and Cytotoxicity of Half-Sandwich Ir(III) Complexes Are Modulated by Structural Modifications on the Benzazole Ancillary Ligand” (Cancers, 2022).
Entries after “also recorded” stand apart in the source; their conditions may differ.

Assays:
BSA = target: T1, BSA (Bos taurus, UniProt P02769); experiment: Native PAGE of BSA with iridium complexes; format: binding, bovine; details: BSA 3 µM, CD/CP = 10, overnight
T1 construct: purchased Merck Life Science S.L.U., Madrid, Spain
T1 sequence (P02769 25-607): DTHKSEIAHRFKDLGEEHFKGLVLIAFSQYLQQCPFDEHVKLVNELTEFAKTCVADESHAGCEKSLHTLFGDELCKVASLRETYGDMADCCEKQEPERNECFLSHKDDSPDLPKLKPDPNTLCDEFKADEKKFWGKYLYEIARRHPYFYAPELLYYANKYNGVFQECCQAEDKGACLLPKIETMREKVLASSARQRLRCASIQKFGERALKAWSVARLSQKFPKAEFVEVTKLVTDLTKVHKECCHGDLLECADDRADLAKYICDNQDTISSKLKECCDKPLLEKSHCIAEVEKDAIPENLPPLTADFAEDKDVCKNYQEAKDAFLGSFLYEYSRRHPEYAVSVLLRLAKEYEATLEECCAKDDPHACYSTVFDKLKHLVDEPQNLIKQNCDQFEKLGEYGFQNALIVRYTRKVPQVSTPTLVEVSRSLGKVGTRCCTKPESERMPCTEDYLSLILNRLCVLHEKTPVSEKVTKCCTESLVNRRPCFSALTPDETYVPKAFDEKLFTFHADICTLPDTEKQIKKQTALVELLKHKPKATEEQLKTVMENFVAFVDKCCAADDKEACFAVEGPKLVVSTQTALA
Description: Native protein electrophoresis. The interaction between BSA and iridium complexes was studied using native polyacrylamide gel electrophoresis (PAGE). The BSA concentration was 3 µM and the CD/CP ratio was 10. The samples of BSA/Ir-complexes were incubated overnight. The samples were mixed with a sample buffer (glycerol and bromophenol) and loaded into a 10% polyacrylamide gel for PAGE analysis (BioRad electrophoresis accessories). The gel was run at 80 V for 3 h, and then it was stained and destained before the gel was imaged using BioRad Gel Doc XR+ molecular imager. The staining solution contains 45% MeOH, 10% glacial acetic acid, 45% H2O and 0.1% brilliant blue, whereas the destaining solution consists of 20% MeOH, 10% glacial acetic acid and 70% H2O.

Calf thymus DNA [1] = experiment: Kinetics of covalent binding to DNA (UV-vis, NMR); details: for Covalent binding to DNA: UV-Vis and NMR; for kc x 103 (rate constant of covalent binding to DNA): values are kc x 103, CP/CD = 20
Description: Materials. The iridium chloride salt (IrCl3·nH2O) was purchased from Johnson Mattey. The ligands 2-phenylbenzimidazole, 2-(2′-pyridylbenzimidazole), 2-(2′-aminophenylbenzimidazole), 2-(2′-aminophenylbenzothiazole), 2-(2′-hydroxyphenylbenzimidazole) and 2-(2′-hydroxyphenylbenzothiazole) were purchased from Sigma-Aldrich. The ligands 2-phenyl-N-methyl-benzimidazole and 2-(2′-pyridyl)l-N-methyl-benzimidazole were prepared according to slightly modified reported protocols. Deuterated solvents were obtained from SDS and Euriso-top. Unless otherwise specified, all the biological reagents were purchased from Merck Life Science S.L.U., Madrid, Spain. Calf thymus DNA provided as a highly polymerized lyophilized sodium salt was dissolved into doubly-deionized water and sonicated with an MSE-Sonyprep sonicator to reduce the polymer length at approximately 1000 base-pairs. The molar DNA concentration in base pairs, ε (260 nm) = 13,200 M^−1 cm^−1 [49], will be expressed as CP. BSA was supplied as crystallized and lyophilized powder (≥98%, agarose gel electrophoresis and ≤0.005% fatty acids); the BSA concentration of the stock solutions was spectrophotometrically determined as ε (278 nm) = 45,000 M^−1 cm^−1. All aqueous solutions were prepared with MilliQ-grade water using a Direct-Q8UV system from Millipore (Millipore Ibérica S.A., Madrid, Spain). All solvents were of analytical grade. The chemical studies were carried out in aqueous solutions at 25 °C, I = 2.5 mM sodium cacodylate (NaCaC) and pH between 6.0 and 7.1 unless other conditions are stated. All buffers with the biological components were of biological grade and used as received.
The UV-vis measurements were performed with a Hewlett-Packard 8453A (Agilent Technologies, Palo Alto, CA, USA) photodiode array spectrophotometer with a Peltier temperature control system. Titrations were carried out at 25 °C by adding increasing amounts of DNA solution to the iridium complex solution. The pKa values were measured by analysing the absorbance change of iridium complex solutions recorded at different pH values. The melting experiments were carried out using a DNA solution varying the CIr-complex/CDNA (CD/CP) ratio from 0 to 1, keeping CP constant and recording the absorbance spectra while heating from 25 to 90 °C at 0.3 °C/min.
The slow kinetic measurements were performed with the previous spectrophotometer while the fast kinetic measurements were performed in a stopped flow Bio-Logic SFM-300 spectrophotometer with an absorbance detection system and dead time below 3 ms. The kinetic curves, obtained averaging out at least five shots, were analysed with the Jandel (AISN software, Mapleton, OR) fitting package.
2 - Interaction wit h DNA
Aquo- complexes bind DNA(N7) more easily than their chlorido analogous[1],[2].
complexes were incubated overnight until the aquation process i s co m ple t ed. Water-insoluble
compounds were firstly dissolved in DMSO and then diluted in water.
From the fitting of absorbance-time graphs (Figure S8 ) to a biexponential analysis, two rate
constants were obtained. The fast reaction could be related to covalent binding, being k c t he
to DNA/Ir-complex rearrangements, so it was disregarded.
0. 174 3 [ N, NH] 4 [ N, NMe ]
Figure S13. Biexponential kinetic curves of DNA with A) 3[N,NH] CD = 1.0 3×1 0-5 M, B) 4[N,NMe] CD =
M, F) 8[CO,S] C D = 9.4 0×1 0- 6 M. CP/CD = 20.
Table S10. Rate constants for the covalent binding between the complexes and DNA.
The formation of covalent DNA/Ir-complex product (PD), can be represented according to the
where P represents the polynucleotide DNA and D the Iridium -metal complexes. Henceforth, CD
and CP stand for the analytical D and P concentrations, respectively.
Nevertheless, we observed that for each complex, the kc values remained essentially constant
with the increment of CP (Figure S9 ), proving that the reaction is monomolecular. Therefore, PD […]

Qualitative solubility = format: physicochemical; details: 1-2 mg, solvent up to 1 mL
Description: Solubility. The solubility of the complexes was qualitatively assessed. Different solvents were added drop-by-drop while shaking to a small amount of complex (around 1–2 mg) in a vial until the solvent added exceeded 1 mL. Afterwards, it was checked if the solid was or not completely dissolved and/or if the solution got coloured.

Calf thymus DNA [2] = experiment: DNA viscosity measurements; format: binding; details: as a function of CD/CP, overnight incubation
Description: Viscosity measurements were performed using a Micro-Ubbelohde viscometer whose temperature was controlled externally (25 ± 0.1 °C). The flow time was measured with a digital stopwatch. Mean values of triplicated measurements were taken to evaluate the DNA viscosity in the absence (η0) and in the presence, (η) of iridium complexes. The viscosity readings were expressed as L/L0 = (η/η0)^1/3 versus the CD/CP ratio. The data was analysed using […] where t0 and tDNA are the buffer and polynucleotide solution flow times, respectively, whereas t is the flow time of the Ir-complex/DNA mixture after the stabilization period.

SMILES	Interaction with BSA (BSA)	Covalent binding to DNA (Calf thymus DNA [1])	kc x 103 (rate constant of covalent binding to DNA) (Calf thymus DNA [1]) [s-1]	Relative viscosity of DNA (L/L0) (Calf thymus DNA [2])	further results
Cc1c(C)c(C)[c-](C)c1C.[Cl-].[Cl][Ir]1[NH2+]c2ccccc2-c2[nH]c3ccccc3[n+]21 [5[CNH2,NH], [(η^5-Cp*)IrCl(κ^2-N,N-apbim)]Cl]	do not interact with the protein	able to covalently bind DNA	3.9 ± 0.1	–	Solubility in water (Qualitative solubility; listed as 5[CNH2,NH-Cl]): soluble in water; Solubility in water (Qualitative solubility; listed as 5[CNH2,NH-Cl]+): water-soluble
Cc1c(C)c(C)[c-](C)c1C.[Cl][Ir]1[c]2ccccc2-c2[nH]c3ccccc3[n+]21 [1[C,NH], [(η^5-Cp*)IrCl(κ^2-N,C-pbim)]]	do not interact with the protein	ruled out	–	No variations	Solubility in water (Qualitative solubility; listed as 1[C,NH-Cl]): insoluble in water; also recorded: soluble in DMSO, but not in water
Cc1c(C)c(C)[c-](C)c1C.[Cl][Ir]1[O]c2ccccc2-c2[nH]c3ccccc3[n+]21 [7[CO,NH], [(η^5-Cp*)IrCl(κ^2-O,N-hpbim)]]	interactions	able to covalently bind DNA	3.7 ± 0.1	–	Solubility in water (Qualitative solubility; listed as 7[CO,NH-Cl]): insoluble in water; also recorded: soluble in DMSO, but not in water
Cc1c(C)c(C)[c-](C)c1C.[Cl][Ir]1[O]c2ccccc2-c2sc3ccccc3[n+]21 [8[CO,S], [(η^5-Cp*)IrCl(κ^2-O,N-hpbtz)]]	interacts with BSA	able to covalently bind DNA	6.0 ± 0.2	–	Solubility in water (Qualitative solubility; listed as 8[CO,S-Cl]): insoluble in water; also recorded: soluble in DMSO, but not in water
Cc1c(C)c(C)[c-](C)c1C.[Cl-].[Cl][Ir]1[NH2+]c2ccccc2-c2sc3ccccc3[n+]21 [6[CNH2,S], [(η^5-Cp*)IrCl(κ^2-N,N-apbtz)]Cl]	do not interact with the protein	able to covalently bind DNA	6.4 ± 0.2	–	Solubility in water (Qualitative solubility): water-soluble
Cc1c(C)c(C)[c-](C)c1C.Cn1c2[n+](c3ccccc31)[Ir]([Cl])[n+]1ccccc1-2.[Cl-] [4[N,NMe], [(η^5-Cp*)IrCl(κ^2-N,N-pyMebim)]Cl]	interactions	able to covalently bind DNA	16 ± 1	–	Solubility in water (Qualitative solubility; listed as 4[N,NMe-Cl]): soluble in water; Solubility in water (Qualitative solubility; listed as 4[N,NMe-Cl]+): water-soluble
Cc1c(C)c(C)[c-](C)c1C.Cn1c2[n+](c3ccccc31)[Ir]([Cl])[c]1ccccc1-2 [2[C,NMe], [(η^5-Cp*)IrCl(κ^2-N,C-NMepbim)]]	do not interact with the protein	ruled out	–	No variations	Solubility in water (Qualitative solubility; listed as 2[C,NMe-Cl]): insoluble in water; also recorded: soluble in DMSO, but not in water
Cc1c(C)c(C)[c-](C)c1C.[Cl-].[Cl][Ir]1[n+]2ccccc2-c2[nH]c3ccccc3[n+]21 [3[N,NH], [(η^5-Cp*)IrCl(κ^2-N,N-pybim)]Cl]	interactions	able to covalently bind DNA	20 ± 2	drastically declined	Solubility in water (Qualitative solubility; listed as 3[N,NH-Cl]): soluble in water; Solubility in water (Qualitative solubility; listed as 3[N,NH-Cl]+): water-soluble
